Reference: patent publication US7638515B2, “Tetrahydronaphthalene derivatives, process for their production and their use as anti-inflammatory agents” (Bayer Schering Pharma Aktiengesellschaft, priority 2003, dated 2009)

Target: T1, glucocorticoid receptor (GR) (Homo sapiens, UniProt P04150)
T1 construct: made in house; host or cells: Sf9 cells infected with recombinant baculovirus (cytosol preparation)
T1 sequence (P04150 1-777): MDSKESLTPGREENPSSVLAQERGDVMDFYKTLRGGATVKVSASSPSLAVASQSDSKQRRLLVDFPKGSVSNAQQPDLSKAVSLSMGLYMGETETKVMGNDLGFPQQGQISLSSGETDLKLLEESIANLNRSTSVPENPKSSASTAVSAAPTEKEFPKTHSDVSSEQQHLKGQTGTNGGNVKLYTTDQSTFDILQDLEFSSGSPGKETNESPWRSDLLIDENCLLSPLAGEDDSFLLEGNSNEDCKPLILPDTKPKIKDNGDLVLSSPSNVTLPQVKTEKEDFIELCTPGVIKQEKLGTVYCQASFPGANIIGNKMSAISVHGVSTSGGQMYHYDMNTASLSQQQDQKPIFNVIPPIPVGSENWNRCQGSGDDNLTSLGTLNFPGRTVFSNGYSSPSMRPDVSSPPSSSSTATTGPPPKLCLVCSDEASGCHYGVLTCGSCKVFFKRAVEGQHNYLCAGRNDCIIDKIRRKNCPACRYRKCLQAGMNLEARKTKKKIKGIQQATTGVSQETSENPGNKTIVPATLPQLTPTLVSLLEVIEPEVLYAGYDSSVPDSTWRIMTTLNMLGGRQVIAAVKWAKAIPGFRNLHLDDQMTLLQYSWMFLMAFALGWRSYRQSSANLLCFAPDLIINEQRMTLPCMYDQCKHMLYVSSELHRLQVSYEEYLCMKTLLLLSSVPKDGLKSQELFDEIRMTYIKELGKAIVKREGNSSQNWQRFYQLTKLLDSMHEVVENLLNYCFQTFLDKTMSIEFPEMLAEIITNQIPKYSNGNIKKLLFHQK
Test: Binding to the glucocorticoid receptor, recombinantly produced receptor, cytosol preparations of Sf9 cells
Conditions: reference substance [3H]-dexamethasone
Description: (§1) The binding of the substances to the glucocorticoid receptor (GR) and other steroid-hormone receptors (mineral corticoid receptor (MR), progesterone receptor (PR) and androgen receptor (AR)) is examined with the aid of recombinantly produced receptors. Cytosol preparations of Sf9 cells, which had been infected with recombinant baculoviruses that code for the GR, are used for the binding studies. In comparison to the reference substance [^3H]-dexamethasone, the substances show a high affinity to the GR.

IC50 [µM] | SMILES
0.095 | CC1(C)CC(O)(C(F)(F)F)C(Nc2cccc3[nH]ncc23)c2cc(F)cc(O)c21 (centres unmarked) [Example 49, 7-Fluoro-1-[(1H-indazol-4-yl)amino]-4,4-dimethyl-2-(trifluoromethyl)-1,2,3,4-tetrahydronaphthalene-2,5-diol]

Target: T2, progesterone receptor (PR) (Homo sapiens, UniProt P06401)
T2 construct: made in house
T2 sequence (P06401 1-933): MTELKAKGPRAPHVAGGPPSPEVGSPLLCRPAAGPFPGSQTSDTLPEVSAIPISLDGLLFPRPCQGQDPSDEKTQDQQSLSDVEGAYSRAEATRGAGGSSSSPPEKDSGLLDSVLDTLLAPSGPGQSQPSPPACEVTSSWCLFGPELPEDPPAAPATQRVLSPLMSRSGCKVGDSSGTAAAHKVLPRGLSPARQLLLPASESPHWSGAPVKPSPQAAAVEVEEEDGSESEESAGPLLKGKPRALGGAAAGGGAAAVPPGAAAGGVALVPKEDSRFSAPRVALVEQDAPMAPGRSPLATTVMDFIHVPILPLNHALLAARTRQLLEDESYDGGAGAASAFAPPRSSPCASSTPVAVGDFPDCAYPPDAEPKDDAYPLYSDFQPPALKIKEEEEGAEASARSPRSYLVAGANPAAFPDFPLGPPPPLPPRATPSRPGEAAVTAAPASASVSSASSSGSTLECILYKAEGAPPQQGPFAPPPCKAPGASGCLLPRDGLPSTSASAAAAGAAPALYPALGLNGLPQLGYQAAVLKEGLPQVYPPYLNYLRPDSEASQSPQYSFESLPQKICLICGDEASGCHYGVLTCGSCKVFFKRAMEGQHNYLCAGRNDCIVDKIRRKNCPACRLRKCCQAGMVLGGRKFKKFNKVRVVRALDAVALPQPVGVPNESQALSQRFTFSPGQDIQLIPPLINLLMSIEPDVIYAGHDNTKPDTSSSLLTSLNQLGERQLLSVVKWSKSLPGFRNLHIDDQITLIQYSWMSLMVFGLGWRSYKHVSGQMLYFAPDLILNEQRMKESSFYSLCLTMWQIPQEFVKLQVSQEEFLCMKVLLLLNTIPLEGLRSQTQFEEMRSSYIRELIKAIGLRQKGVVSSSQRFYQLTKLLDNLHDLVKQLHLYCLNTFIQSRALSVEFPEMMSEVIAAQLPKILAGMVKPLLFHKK
Test: Binding to the progesterone receptor, recombinantly produced receptor
Conditions: not given
Description: as §1

IC50 [µM] | SMILES
0.46 | CC1(C)CC(O)(C(F)(F)F)C(Nc2cccc3[nH]ncc23)c2cc(F)cc(O)c21 (centres unmarked) [Example 49, 7-Fluoro-1-[(1H-indazol-4-yl)amino]-4,4-dimethyl-2-(trifluoromethyl)-1,2,3,4-tetrahydronaphthalene-2,5-diol]

Test system: secretion of cytokine IL-8 in the human monocyte cell line THP-1
Test: Inhibition of LPS-triggered secretion of cytokine IL-8 in THP-1 cells (ELISA)
Format: cell-based
Conditions: THP-1, supernatant ELISA, read-out: IC50(IL8)
Description: The concentration of the cytokines was determined in the supernatant by means of commercially available ELISA kits.

IC50 [µM] | SMILES
0.019 | CC1(C)CC(O)(C(F)(F)F)C(Nc2cccc3[nH]ncc23)c2cc(F)cc(O)c21 (centres unmarked) [Example 49, 7-Fluoro-1-[(1H-indazol-4-yl)amino]-4,4-dimethyl-2-(trifluoromethyl)-1,2,3,4-tetrahydronaphthalene-2,5-diol]

Test system: not given
Test: not given
Conditions: not given

SMILES | melting point [°C]
COc1ccc2c(c1)C(Nc1cccc3[nH]c(=O)ccc13)C(O)(C(F)(F)F)CC2(C)C (centres unmarked) [Example 136, 5-(2-Hydroxy-7-methoxy-4,4-dimethyl-2-(trifluoromethyl)-1,2,3,4-tetrahydronaphthalen-1-ylamino)-1H-quinolin-2-one] | 128
COc1ccc2c(c1)C(Nc1cccc3c(=O)[nH]ccc13)C(O)(C(F)(F)F)CC2(C)C (centres unmarked) [Example 137, 5-(2-Hydroxy-7-methoxy-4,4-dimethyl-2-(trifluoromethyl)-1,2,3,4-tetrahydronaphthalen-1-ylamino)-2H-isoquinolin-1-one] | 112
CC1(C)CC(O)(C(F)(F)F)C(Nc2cccc3[nH]c(=O)ccc23)c2cc(O)c(Cl)cc21 (centres unmarked) [Example 134, 5-(6-Chloro-2,7-dihydroxy-4,4-dimethyl-2-(trifluoromethyl)-1,2,3,4-tetrahydronaphthalen-1-ylamino)-1H-quinolin-2-one] | 158
COc1ccc2c(c1)C(Nc1ccc(F)c3nc(C)ncc13)C(O)(C(F)(F)F)CC2(C)C (centres unmarked) [Example 135, 1-(8-Fluoro-2-methylquinazolin-5-ylamino)-7-methoxy-4,4-dimethyl-2-(trifluoromethyl)-1,2,3,4-tetrahydronaphthalen-2-ol] | 97
CC1(C)CC(O)(C(F)(F)F)C(Nc2cccc3[nH]ncc23)c2c(F)ccc(F)c21 (racemic) [Example 105, Rac.-5,8-Difluoro-1-[(1H-indazol-4-yl)amino]-4,4-dimethyl-2-(trifluoromethyl)-1,2,3,4-tetrahydronaphthalen-2-ol] | 209 to 221

Continued, values first:

melting point [°C] | SMILES
228 | COc1cccc2c1CCC(O)(C(F)(F)F)C2Nc1cccc2[nH]c(=O)ccc12 (centres unmarked) [Example 144, 5-(2-Hydroxy-5-methoxy-2-(trifluoromethyl)-1,2,3,4-tetrahydronaphthalen-1-ylamino)-1H-quinolin-2-one]
127 | Cc1ccc2c(NC3c4cc(O)ccc4C(C)(C)CC3(O)C(F)(F)F)cccc2n1 (centres unmarked) [Example 140, 4,4-Dimethyl-1-(2-methylquinolin-5-ylamino)-2-(trifluoromethyl)-1,2,3,4-tetrahydronaphthalene-2,7-diol]
116 | CC1(C)CC(O)(C(F)(F)F)C(Nc2cccc3c(=O)[nH]ncc23)c2cc(O)ccc21 (centres unmarked) [Example 141, 5-(2,7-Dihydroxy-4,4-dimethyl-2-(trifluoromethyl)-1,2,3,4-tetrahydronaphthalen-1-ylamino)-2H-phthalazin-1-one]
132 | COc1cccc2c1CCC(O)(C(F)(F)F)C2Nc1ccc(F)c2nc(C)ncc12 (centres unmarked) [Example 145, 1-(8-Fluoro-2-methylquinazolin-5-ylamino)-5-methoxy-2-(trifluoromethyl)-1,2,3,4-tetrahydro-naphthalen-2-ol]
85 | COc1ccc2c(c1)C(Nc1cccc3nc(C)ccc13)C(O)(C(F)(F)F)CC2(C)C (centres unmarked) [Example 139, 7-Methoxy-4,4-dimethyl-1-(2-methylquinolin-5-ylamino)-2-(trifluoromethyl)-1,2,3,4-tetrahydronaphthalen-2-ol]
197 | COc1ccc2c(c1)C(Nc1cccc3c(=O)[nH]ncc13)C(O)(C(F)(F)F)CC2(C)C (centres unmarked) [Example 138, 5-(2-Hydroxy-7-methoxy-4,4-dimethyl-2-(trifluoromethyl)-1,2,3,4-tetrahydronaphthalen-1-ylamino)-2H-phthalazin-1-one]
